Blank lines part the entries; values can stand above or below the compound they belong to.
Tests used:
[1] = Protection of VD against acidic pH treatment (pH 2.5, 2 hr, RT) with RPH-MD, RP-HPLC; format: physicochemical; settings: pH 2.5 for 2 hr at RT; initial VD 0.02 mg/ml, 0.5% ethanol, 0.1% w/w protein
Description: (§1) The protection conferred by the RPH-MD against HN deterioration with time was evaluated. Different shelf life conditions of temperature 4° C. or 23° C. and pH, neutral or acidic, were tested. Neutral pH conditions were obtained by a pH7 PBS. Acidic conditions for CLA were obtained by a pH 3 citric buffer. Acidic conditions (pH 2.5) for VD were obtained by addition of HCl.
(§2) Following the incubation of HN co-assembled samples under the above shelf life conditions, HN extraction was carried out. Then the HN concentration in the samples was quantified using reversed phase HPLC(RP-HPLC), 4.6×100 mm C18-C2 column, on an Akta basic HPLC system equipped with a 3 simultaneous wavelengths UV detector (GE Healthcare, Waukesha, Wis., USA). The volume of the injection loop was 100 μl, and the operation temperature was 24° C.
(§3) The concentration of the vitamin D was 0.02 mg/ml, a high dosage intended for simulating beverage concentrates, which are later diluted during bottling, but must be colloidally and chemically stable. […]
(§4) Vitamin D extraction and HPLC quantification was based on Kazmi et al^57. […] Operating conditions were: ambient temperature (24±1° C.); mobile phase was methanol: acetonitrile: water (49.5:49.5:1 v/v); flow rate was 0.3 ml/min; and the absorbance was measured at 254 nm and 228 nm.

[2] = Shelf life of VD at RT and 4° C. in pH 7 PBS with RPH-MD; format: physicochemical; settings: after 22 days of simulated shelf life at neutral pH and 4° C.; VD 0.02 mg/ml, 0.5% ethanol, 0.1% protein
Description: as §1, §2, §3, §4

[3] = Particle size distribution by DLS, RPH / RPH-MD samples with and without CLA or VD, with and without homogenization; format: physicochemical; settings: 0.5% ethanol
Description: The conjugate samples were characterized as follows. Two mg/ml (on a protein base) solutions were prepared from the dry heated samples of RPH with and without MD and compared to the unheated control. The RPH-MD powder was dissolved in a pH 7 PBS and stirred overnight for complete hydration. The samples were filtered through 0.45 μm syringe filters (polyvinylidene fluoride, Durapore filter (Millipore, Carrigtwohill, Co. Cork, Ireland).
Additionally, the HN RPH-MD co-assembled particles were analyzed at different concentrations of the VD or CLA.
The dispersion of VD with and without RPH-MD was homogenized by Micro DeBee (Bee International Inc. South Easton Mass., USA) ultra-high pressure homogenizer: process pressure: 20-25 kpsi, Orifice diameter: 0.1 mm. The sample composition was 0.1% protein, 0.5% ethanol, VD concentration 0.02 mg/ml, buffer PBS pH 7. The sample volume subjected to homogenization was 25 ml. The influence of the homogenization process on particles size was evaluated by DLS measurements performed 2 hr after the homogenization.

[4] = Simulated gastric digestion using Nile red (NR adsorption to glass, with and without pepsin); format: in vitro ADME; settings: pepsin:CN mass ratio 1:20, pH 2.5, 2 hrs at 37° C.
Description: NR stock solution in ethanol was prepared at a concentration of 0.16 mg/ml=502.6 μM. NR was added during vortexing to the conjugate, mixture or buffer solution, at a concentration of 1.3 μM, to minimize inner filtering effect in fluorescence measurements.
Free NR in aqueous solution adsorbs to the glass walls, which may serve as a convenient way to study its release behavior from nanocapsules. To examine whether NR adsorbs to glass when in water, NR was added to 1 ml of water in a glass vial to a final concentration of 1.3 μM. The vial was left for 2 hrs, then the water was transferred to a new glass vial, and 1 ml of acetone was added to the new vial. At the same time 2 ml of water:acetone (1:1 vol/vol) solution was added to the first vial. After 1 hr both solutions were read for florescence intensity at ex:570, em:645 which is the intensity peak at water:acetone 1:1. Concentration was calculated from the intensity using a NR in water: acetone (1:1) calibration curve.
Then pepsin was added to some of the samples at a concentration of 0.15 mg/ml, in order to reach pepsin: CN mass ratio of 1:20 according to the method by Mandalari et al.^79. […] After 1 hr the acetone: water solution with NR which had adsorbed to the glass was read for fluorescence intensity (ex:570, em:645). NR fluorescence was measured with time to validate that no bleaching occurred during the procedure (data not shown).

[5] = CLA protection under acidic conditions (pH 3, 4° C.) with RPH-MD, RP-HPLC; format: physicochemical; settings: CLA 0.09 mg/ml, 0.5% ethanol, 1% protein
Description: as §1, §2, §3
(§5) To extract CLA, isopropanol (0.5 ml) was added to 0.5 ml sample. […] The separation of CLA was performed with a mobile phase of acetonitrile/water/acetic acid (70/30/0.12, v/v/v) at a flow rate of 1.5 ml/min and CLA was detected at 234 nm, which was found optimal in a spectrum scan (not shown).

[6] = Simulated shelf life of CLA at RT in pH 7 PBS with RPH-MD; format: physicochemical; settings: after 14 days, neutral pH (pH 7 PBS), CLA 0.09 mg/ml, 0.5% ethanol, 1% protein
Description: as §1, §2, §3, §5

Compound: Vitamin D3 [Vitamin D3 (VD3)]
residual VD [1]: 50% | residual VD [2]: 28% | VD particle size fraction by DLS, without homogenization ([3]; 0.1% protein, 0.02 mg/ml VD, pH 7 PBS): 100-200 nm

Compound: CCN(CC)c1ccc2nc3c4ccccc4c(=O)cc-3oc2c1 [Nile Red (NR), Nile Red]
effect of digestion with pepsin on binding of NR (in words) [4]: did not change the binding of NR to casein peptides

residual percentage of CLA ([5]; after 1 day at pH 3.0 and 4° C.): about 20% | residual percentage of CLA ([5]; after 4 days at pH 3.0 and 4° C.): ~0% | residual percentage of CLA [6]: 0% | CLA particle size by DLS ([3]; CLA in PBS pH 7 or 1% protein solutions, RPH-MD value at CLA 0.05-0.015 μg/ml): a few hundred
Compound: conjugated linoleic acid [CLA]
